Like-named read-outs stand apart in the source and are kept apart here.
Columns and labels:
calpain I = target: T1, calpain I (Homo sapiens, UniProt P07384); experiment: Calpain I irreversible inhibition assay; format: biochemical, porcine; settings: 23° C.; for kinact/KI: read-out: kobs/[I] Calpain I
T1 construct: purchased Calbiochem (La Jolla, Calif.)
T1 sequence (P07384 1-714): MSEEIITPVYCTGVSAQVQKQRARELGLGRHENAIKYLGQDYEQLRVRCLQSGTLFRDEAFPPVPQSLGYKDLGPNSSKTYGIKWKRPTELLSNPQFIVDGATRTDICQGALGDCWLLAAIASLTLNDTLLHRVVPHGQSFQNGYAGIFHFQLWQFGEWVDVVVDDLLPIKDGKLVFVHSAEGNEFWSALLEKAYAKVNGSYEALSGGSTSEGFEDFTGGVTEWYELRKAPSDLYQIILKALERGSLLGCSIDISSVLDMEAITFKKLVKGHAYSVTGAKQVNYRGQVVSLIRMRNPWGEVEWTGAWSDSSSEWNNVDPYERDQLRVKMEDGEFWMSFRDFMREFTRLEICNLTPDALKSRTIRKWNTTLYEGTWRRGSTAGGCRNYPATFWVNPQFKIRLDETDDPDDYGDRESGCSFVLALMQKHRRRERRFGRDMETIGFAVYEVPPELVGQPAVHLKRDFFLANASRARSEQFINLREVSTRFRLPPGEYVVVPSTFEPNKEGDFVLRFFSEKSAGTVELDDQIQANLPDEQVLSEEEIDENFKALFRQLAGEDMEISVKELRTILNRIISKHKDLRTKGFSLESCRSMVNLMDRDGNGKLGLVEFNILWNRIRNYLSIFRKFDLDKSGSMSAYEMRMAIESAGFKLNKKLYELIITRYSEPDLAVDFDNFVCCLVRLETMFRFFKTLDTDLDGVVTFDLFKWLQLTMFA
T1 sequence (P04632 1-268 partner): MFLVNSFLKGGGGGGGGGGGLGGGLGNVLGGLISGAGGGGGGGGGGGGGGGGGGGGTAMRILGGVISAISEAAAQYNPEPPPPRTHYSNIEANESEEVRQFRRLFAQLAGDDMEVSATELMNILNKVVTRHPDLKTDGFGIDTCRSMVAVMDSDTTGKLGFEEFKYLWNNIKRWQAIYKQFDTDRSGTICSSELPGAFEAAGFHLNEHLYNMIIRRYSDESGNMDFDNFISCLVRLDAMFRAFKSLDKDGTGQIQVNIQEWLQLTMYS
Experimental: Calpain I was purchased from Calbiochem (La Jolla, Calif.) in a solution of 30% glycerol at a concentration of 6.96 μM and stored at −20° C. prior to use. The calpain I assay was conducted with 235 μL of a solution of 50 mM Hepes, […], at pH 7.5 (calpain I buffer), 6.5 μL of Suc-Leu-Tyr-AMC substrate solution in DMSO and 4.2 μL of the enzyme solution (6.96 μM) at 23° C. The enzymatic activity was monitored by following the change in fluorescence for 10 min at 465 nm. The k2 values were obtained by non-linear regression analysis and corrected for substrate (1+[S]/KM=1.274). All assays were run in duplicate and the standard deviation was determined.

papain = target: T2, papain (Carica papaya, UniProt P00784); experiment: Papain incubation method inhibition assay; format: biochemical; settings: for kinact/KI: pH 7.5, read-out: kobs/[I] Papain, incubation method; for kobs/[I] Papain: incubation method, pH 7.5
T2 construct: purchased
T2 sequence (P00784 134-345): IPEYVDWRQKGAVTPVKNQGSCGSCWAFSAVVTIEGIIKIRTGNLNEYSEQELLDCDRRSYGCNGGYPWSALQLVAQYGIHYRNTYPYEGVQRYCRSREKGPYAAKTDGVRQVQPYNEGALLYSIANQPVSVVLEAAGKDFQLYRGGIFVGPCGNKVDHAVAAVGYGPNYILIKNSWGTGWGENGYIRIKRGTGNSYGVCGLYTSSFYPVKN
Experimental: (§1) The incubation method was used to measure the irreversible inhibition of papain and cathepsin B. With cathepsin B, 30 μL of a stock inhibitor solution was added to 300 μL of a 0.1 M potassium phosphate buffer containing 1.25 mM EDTA, 0.01% Brij 35 at pH 6.0, followed by the addition of 30 μL of a freshly prepared cathepsin B solution (approximate concentration 6.98×10^−3 μg/μL) in the same potassium phosphate buffer containing 1 mM DTT (freshly prepared). Aliquots (50 μL) from the inhibition mixture were withdrawn at various time intervals and added to 200 μL of a 0.1 M potassium phosphate buffer containing 1.25 mM EDTA, 0.01% Brij 35 at pH 6.0, and the substrate Cbz-Arg-Arg-AMC (499 μM). The release of 7-amino-4-methylcoumarin was monitored (λex=360 nm, λem=465 nm) using a Tecan Spectra Fluor microplate reader. Pseudo first-order inactivation rate constants were obtained from plots of In vt/vo versus time.
The incubation method was also used for commercially available papain. The inhibition incubation buffer for papain was 50 mM Hepes buffer at pH 7.5, containing 2.5 mM DTT (dithiothreitol) and 2.5 mM EDTA. The assay used the substrate Cbz-Phe-Arg-pNA (53.7 μM) in the same buffer. The approximate concentration of papain added to the incubation buffer was 0.29 mg/mL. The release of p-nitroanilide was monitored at 405 nm with a Molecular Devices Thermomax microplate reader. All assays were run in duplicate.

cathepsin B [1] = target: T3, cathepsin B (Homo sapiens, UniProt P07858); experiment: Cathepsin B incubation method inhibition assay; format: biochemical; settings: pH 6.0, 23° C., N.I. = no inhibition after 20 minutes of incubation
Experimental: as §1

cathepsin L [2] = target: T4, cathepsin L (Homo sapiens, UniProt P07711); experiment: Cathepsin L progress curve inhibition assay; format: biochemical; settings: corrected for substrate; for kinact/KI: pH 5.5, progress curve method, read-out: kobs/[I] Cathepsin L
T4 construct: purchased Athens Research & Technology (Athens, Ga.)
Experimental: Cathepsin L was purchased from Athens Research & Technology (Athens, Ga.) in a 20 mM malonate buffer solution at pH 5.5 with 1 mM EDTA and 400 mM NaCl with a specific activity of 4.133 U/mg. The progress of cathepsin L inhibition was conducted with 243 μL of a solution of 0.25 M NaAc, 2 mM EDTA, 0.015% Brij, 5 mM DTT (dithiothreitol) at pH 5.5, 4 μL of Cbz-Phe-Arg-AMC substrate solution (16 mM) in DMSO (2% final concentration). Activity was monitored by following the change in fluorescence for 20 min at 465 nm. The kobs values were obtained by non-linear regression analysis and corrected for substrate (1+[S]/KM=1.274). All assays were run in duplicate and the standard deviation was determined.

[3] = target: purified recombinant cruzain (Trypanosoma cruzi, UniProt P25779); experiment: Cruzain IC50 determination; format: biochemical; settings: for IC50: cruzain 2 nM, 5 minutes preincubation at room temperature, pH 5.5
Experimental: (§2) Inhibitors were screened for effectiveness against purified recombinant cruzain and rhodesain. Cruzain (2 nM) or rhodesain (3 nM) was incubated with 0.0001 to 1 μM inhibitor in 100 mM sodium acetate buffer, pH 5.5 and 5 mM DTT (buffer A), for 5 minutes at room temperature. Buffer A containing Cbz-Phe-Arg-AMC (Bachem, KM=1 μM, AMC=7-amino-4-methylcoumarin) was added to the enzyme and inhibitor to give 20 or 10 μM substrate concentration for cruzain and rhodesain, respectively, in 200 μL. The increase in fluorescence (excitation at 355 nm and emission at 460 nm) was followed with an automated microtiter plate spectrofluorimeter (Molecular Devices, Flex Station). Inhibitor stock solutions were prepared at 20 mM in DMSO and serial dilutions were made in DMSO (0.7% DMSO in assay). Controls were performed using enzyme alone, and enzyme with DMSO. IC50 values were determined graphically using inhibitor concentrations in the linear portion of a plot of enzyme activity versus log [I] (7 concentrations tested with at least 2 in the linear range).

[4] = target: purified recombinant rhodesain (Trypanosoma brucei rhodesiense, UniProt Q95PM0); experiment: Rhodesain IC50 determination; format: biochemical, Trypanosoma brucei rhodensiense; settings: for IC50: rhodesain 3 nM, 5 minutes preincubation at room temperature, pH 5.5
Experimental: as §2

cathepsin B [5] = target: T3, cathepsin B; settings: irreversible inhibition; cited from earlier work
cathepsin L [6] = target: T4, cathepsin L; settings: irreversible inhibition; cited from earlier work
cathepsin H = target: T5, cathepsin H (Homo sapiens, UniProt P09668); settings: irreversible inhibition; cited from earlier work
T5 sequence (P09668 98-335): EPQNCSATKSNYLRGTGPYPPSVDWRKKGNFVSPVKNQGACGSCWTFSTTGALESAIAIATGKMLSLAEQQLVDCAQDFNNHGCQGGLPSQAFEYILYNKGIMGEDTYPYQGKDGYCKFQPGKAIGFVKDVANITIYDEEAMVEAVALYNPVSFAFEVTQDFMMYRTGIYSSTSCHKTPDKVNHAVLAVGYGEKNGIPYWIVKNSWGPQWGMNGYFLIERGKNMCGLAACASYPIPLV

[7] = pH 7.5, incubation method, plots of ln vt/v0 vs time
[8] = pH 7.5, progress curve method, corrected for substrate

Sequence of purified recombinant rhodesain (Q95PM0 entry or part of it): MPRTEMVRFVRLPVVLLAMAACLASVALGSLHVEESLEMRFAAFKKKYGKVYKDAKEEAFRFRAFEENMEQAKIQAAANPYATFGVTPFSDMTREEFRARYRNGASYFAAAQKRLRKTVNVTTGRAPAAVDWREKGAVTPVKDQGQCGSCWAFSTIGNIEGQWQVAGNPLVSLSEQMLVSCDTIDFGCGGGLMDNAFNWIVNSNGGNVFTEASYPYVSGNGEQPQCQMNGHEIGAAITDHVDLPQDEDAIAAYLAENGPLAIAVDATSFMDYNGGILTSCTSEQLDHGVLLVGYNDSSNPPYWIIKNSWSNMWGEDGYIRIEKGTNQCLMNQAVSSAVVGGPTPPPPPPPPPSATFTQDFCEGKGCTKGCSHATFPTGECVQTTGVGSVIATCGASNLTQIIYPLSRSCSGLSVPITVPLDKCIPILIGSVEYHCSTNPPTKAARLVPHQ
Sequence of purified recombinant cruzain (P25779 123-467): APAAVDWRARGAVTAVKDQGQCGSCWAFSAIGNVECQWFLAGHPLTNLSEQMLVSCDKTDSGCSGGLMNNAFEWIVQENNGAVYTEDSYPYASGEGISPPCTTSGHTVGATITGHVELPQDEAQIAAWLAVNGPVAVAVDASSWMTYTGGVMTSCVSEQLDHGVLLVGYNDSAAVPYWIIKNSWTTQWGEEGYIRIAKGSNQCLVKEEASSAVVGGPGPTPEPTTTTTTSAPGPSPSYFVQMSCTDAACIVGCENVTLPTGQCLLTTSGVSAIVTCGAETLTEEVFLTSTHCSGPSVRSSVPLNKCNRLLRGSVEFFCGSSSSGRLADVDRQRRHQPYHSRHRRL
T4 sequence (P07711 114-333): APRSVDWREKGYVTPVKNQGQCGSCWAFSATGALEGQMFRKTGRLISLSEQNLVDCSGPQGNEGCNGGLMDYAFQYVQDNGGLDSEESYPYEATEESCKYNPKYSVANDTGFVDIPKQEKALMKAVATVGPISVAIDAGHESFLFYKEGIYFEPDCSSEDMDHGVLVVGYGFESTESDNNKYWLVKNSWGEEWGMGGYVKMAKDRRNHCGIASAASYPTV

C[C@H](NC(=O)OCc1ccccc1)C(=O)NC(=CCS(=O)(=O)c1ccccc1)Cc1ccccc1 (mixture of isomers) [Cbz-Ala-Phe-AS-Ph, Phenyl-3-(N-carbobenzyloxyalanyl)amino-4-phenylbut-2-enyl Sulfone]
kinact/KI (calpain I; [7]): 3 M⁻¹ s⁻¹
kinact/KI (papain): 9 M⁻¹ s⁻¹
kobs/[I] Cathepsin B (cathepsin B [1]): N.I.^f
kinact/KI (cathepsin L [2]): 183 ± 10 M⁻¹ s⁻¹
IC50 ([3]; read-out: IC50 Cruzain): > 10000 nM
IC50 ([4]; IC50 Rhodesain): > 10000 nM

CC(C)[C@H](NC(=O)OCc1ccccc1)C(=O)NC(=CCS(=O)(=O)c1ccccc1)Cc1ccccc1 (mixture of isomers) [Cbz-Val-Phe-AS-Ph, Phenyl-3-(N-carbobenzyloxyvalyl)amino-4-phenylbut-2-enyl Sulfone]
kinact/KI (calpain I; [7]): 3 M⁻¹ s⁻¹
kinact/KI (papain): 6 ± 1 M⁻¹ s⁻¹
kobs/[I] Cathepsin B (cathepsin B [1]): N.I.
kinact/KI (cathepsin L [2]): 310 ± 52 M⁻¹ s⁻¹
IC50 ([3]; read-out: IC50 Cruzain): 6000 nM
IC50 ([4]; IC50 Rhodesain): 5000 nM

CC(C)C[C@H](NC(=O)OCc1ccccc1)C(=O)NC(=CCS(=O)(=O)c1ccccc1)Cc1ccccc1 (single isomer, unassigned) [Cbz-Leu-Phe-AS-Ph (Isomer A), Phenyl-3-(N-carbobenzyloxyleucyl)amino-4-phenylbut-2-enyl Sulfone]
kinact/KI (calpain I; [7]): 23 ± 4 M⁻¹ s⁻¹
kobs/[I] Papain (papain): 49 M⁻¹ s⁻¹
kobs/[I] Cathepsin B (cathepsin B [1]): N.I.
kinact/KI (cathepsin L [2]): 700 ± 43 M⁻¹ s⁻¹
IC50 ([3]; read-out: IC50 Cruzain): 60 nM
IC50 ([4]; IC50 Rhodesain): 40 nM

CC(C)C[C@H](NC(=O)OCc1ccccc1)C(=O)NC(=CCS(=O)(=O)c1ccccc1)Cc1ccccc1 (single isomer, unassigned) [Cbz-Leu-Phe-AS-Ph (Isomer B), Phenyl-3-(N-carbobenzyloxyleucyl)amino-4-phenylbut-2-enyl Sulfone]
kinact/KI (calpain I; [8]): 564 ± 32 M⁻¹ s⁻¹
kobs/[I] Calpain I (calpain I; progress curve method, corrected for substrate, pH 7.5): 564 M⁻¹ s⁻¹
kobs/[I] Papain (papain): 15 ± 1 M⁻¹ s⁻¹
kobs/[I] Cathepsin B (cathepsin B [1]): N.I.
kobs/[I] Cathepsin L (cathepsin L [2]; progress curve method, pH 5.5): 1062 M⁻¹ s⁻¹
IC50 ([3]; read-out: IC50 Cruzain): 300 nM
IC50 ([4]; IC50 Rhodesain): 180 nM

CC(C)CCNC(=O)[C@H](CC(C)C)NC(=O)/C=C/C(=O)O (stereo in doubt) [fumarate derivative of E-64c, trans-HOOCCH═CH—CO-Leu-NH(CH2)2CH(CH3)2]
kapp cathepsin B (cathepsin B [5]): 625 M⁻¹ s⁻¹
kapp cathepsin L (cathepsin L [6]): 2272 M⁻¹ s⁻¹
inhibition of cathepsin H (cathepsin H): inhibits

CC(C)C[C@H](NC(=O)OCc1ccccc1)C(=O)N[C@H](C=CS(=O)(=O)c1ccccc1)Cc1ccccc1 [reference compound]
kinact/KI (calpain I; [8]): 550 ± 2 M⁻¹ s⁻¹
kinact/KI (papain): 10 M⁻¹ s⁻¹
kobs/[I] Cathepsin B (cathepsin B [1]): N.I.
kinact/KI (cathepsin L [2]): 219 ± 96 M⁻¹ s⁻¹
IC50 ([3]; IC50 Cruzain): 2000 nM
fold less potent with cruzain than the corresponding allyl sulfone Cbz-Leu-Phe-AS-Ph ([3]; ratio of IC50 values): over 30 fold
fold less potent with rhodesain than the corresponding allyl sulfone Cbz-Leu-Phe-AS-Ph ([4]; ratio of IC50 values): > 12 fold
IC50 ([4]; read-out: IC50 Rhodesain): 500 nM

From patent US7521427B2 (Georgia Tech Research Corporation, priority 2004, dated 2009)
